What follows are molecules tested against DNA gyrase (Escherichia coli, UniProt P0AES4+P0AES6) (assay: Inhibition of DNA gyrase supercoiling in Escherichia coli.).
Assay type: protein-complex assay

| IC50 | Structure (SMILES) |
| --- | --- |
| > 2190 µM | O=c1oc2c(O)c(O)ccc2c2ccccc12 |
| > 2550 µM | O=c1oc2ccccc2c2ccccc12 |
| 307 µM | O=c1oc2cc(O)c(O)cc2c2cc(O)c(O)cc12 |
| 151 µM | O=c1oc2c(F)c(F)ccc2c2cc(O)c(O)cc12 |
| 156 µM | O=c1oc2c(O)c(O)cc3c(=O)oc4c(O)c(O)cc1c4c23 [ELLAGIC ACID] |
| > 1920 µM | Cc1cc(O)c(O)c2oc(=O)c3ccc(F)cc3c12 |
| 942 µM | O=c1oc2c(Cl)c(Cl)ccc2c2cc(O)c(O)cc12 |
| 500 µM | O=c1oc2c(O)c(O)ccc2c2cc(O)c(O)cc12 |
| 328 µM | O=c1oc2c(O)c(O)ccc2c2ccc(O)cc12 |
| 447 µM | O=c1oc2c(O)c(O)ccc2c2cc(F)ccc12 |
| 53.2 µM | O=C1c2cc(O)c(O)cc2-c2cc(O)c(O)cc21 |
| 511 µM | Cc1cc(O)c(O)c2oc(=O)c3cc(O)c(O)cc3c12 |
| 7.66 µM | ONC1c2cc(O)c(O)cc2-c2cc(O)c(O)cc21 |
| 1500 µM | O=c1oc2cc(O)c(O)cc2c2cc(F)ccc12 |
| > 2190 µM | O=c1oc2ccccc2c2cc(O)c(O)cc12 |

From ChEMBL document CHEMBL1130981, “DNA gyrase inhibitory activity of ellagic acid derivatives” (Bioorg Med Chem Lett, 1998)
